Results: ChEMBL document CHEMBL1201861, “Genomics of Drug Sensitity in Cancer screening data, Wellcome Trust Sanger Institute”

Assays:
Experiment in all cases: cells
697 = assay type: functional, cell-based; settings: Homo sapiens
Description: SANGER: Inhibition of human 697 cell growth in a cell viability assay.

HuP-T4 = assay type: functional, cell-based, Homo sapiens; settings: Homo sapiens, HuP-T4;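 note: cell viability assay measuring how much HuP-T4 cell growth is inhibited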
Description: SANGER: Inhibition of human HuP-T4 cell growth in a cell viability assay.

MFM-223 = assay type: functional, cell-based, Homo sapiens; settings: Homo sapiens, MFM-223
Description: SANGER: Inhibition of human MFM-223 cell growth in a cell viability assay.

JAR = assay type: functional, cell-based, Homo sapiens; settings: Homo sapiens, JAR;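 note: growth inhibition of human JAR cells determined with a cell viability assay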
Description: SANGER: Inhibition of human JAR cell growth in a cell viability assay.

NCI-H727 = assay type: functional, cell-based, Homo sapiens; settings: Homo sapiens, NCI-H727;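 note: growth inhibition of human NCI-H727 cells, read out with a cell viability assay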
Description: SANGER: Inhibition of human NCI-H727 cell growth in a cell viability assay.

UO-31 = assay type: functional, cell-based; settings: Homo sapiens;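 note: cell viability assay measuring inhibition of cell growth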
Description: SANGER: Inhibition of human U031 cell growth in a cell viability assay.

KS-1 = assay type: functional, cell-based, Homo sapiens; settings: Homo sapiens, KS-1;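 note: growth inhibition of KS-1 cells, read out with a cell viability assay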
Description: SANGER: Inhibition of human KS-1 cell growth in a cell viability assay.

KM12 = assay type: functional, cell-based, Homo sapiens; settings: Homo sapiens, KM12;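 note: KM12 cell growth inhibition, read out with a cell viability assay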
Description: SANGER: Inhibition of human KM12 cell growth in a cell viability assay.

BE-13 = assay type: functional, cell-based; settings: Homo sapiens;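 note: growth inhibition of human BE-13 cells, measured with a cell viability assay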
Description: SANGER: Inhibition of human BE-13 cell growth in a cell viability assay.

CAMA-1 = assay type: functional, cell-based, Homo sapiens; settings: Homo sapiens, CAMA-1;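 note: growth inhibition of CAMA-1 cells, read out with a cell viability assay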
Description: SANGER: Inhibition of human CAMA-1 cell growth in a cell viability assay.

KARPAS-299 = assay type: functional, cell-based; settings: Homo sapiens
Description: SANGER: Inhibition of human KARPAS-299 cell growth in a cell viability assay.

KU812 cell line = assay type: functional, cell-based; settings: Homo sapiens;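 note: growth inhibition of KU812 cells, read out with a cell viability assay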
Description: SANGER: Inhibition of human KU812 cell growth in a cell viability assay.

OVCAR-4 = assay type: functional, cell-based, Homo sapiens; settings: Homo sapiens, OVCAR-4;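 note: growth inhibition of human OVCAR-4 cells, measured with a cell viability assay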
Description: SANGER: Inhibition of human OVCAR-4 cell growth in a cell viability assay.

UACC-257 = assay type: functional, cell-based, Homo sapiens; settings: Homo sapiens, UACC-257
Description: SANGER: Inhibition of human UACC-257 cell growth in a cell viability assay.

DOK = assay type: functional, cell-based, Homo sapiens; settings: Homo sapiens, DOK;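 note: cell viability assay read-out, values reflect inhibition of cell growth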
Description: SANGER: Inhibition of human DOK cell growth in a cell viability assay.

MC116 = assay type: functional, cell-based; settings: Homo sapiens;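 note: growth inhibition of MC116 cells, read out with a cell viability assay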
Description: SANGER: Inhibition of human MC116 cell growth in a cell viability assay.

A-375 = assay type: functional, cell-based, Homo sapiens; settings: Homo sapiens, A-375;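 note: growth inhibition of A375 cells, read out with a cell viability assay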
Description: SANGER: Inhibition of human A375 cell growth in a cell viability assay.

IA-LM = assay type: functional, cell-based, Homo sapiens; settings: Homo sapiens, IA-LM;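 note: cell viability assay measuring growth inhibition of human IA-LM cells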
Description: SANGER: Inhibition of human IA-LM cell growth in a cell viability assay.

MEL-HO = assay type: functional, cell-based, Homo sapiens; settings: Homo sapiens, MEL-HO
Description: SANGER: Inhibition of human MEL-HO cell growth in a cell viability assay.

BFTC-905 = assay type: functional, cell-based, Homo sapiens; settings: Homo sapiens, BFTC-905
Description: SANGER: Inhibition of human BFTC-905 cell growth in a cell viability assay.

CTV-1 = assay type: functional, cell-based; settings: Homo sapiens;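 note: growth inhibition of the cell line, read out with a cell viability assay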
Description: SANGER: Inhibition of human CTV-1 cell growth in a cell viability assay.

NB7 = assay type: functional, cell-based; settings: Homo sapiens;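 note: growth inhibition of NB7 cells, read out with a cell viability assay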
Description: SANGER: Inhibition of human NB7 cell growth in a cell viability assay.

HAL-01 = assay type: functional, cell-based; settings: Homo sapiens;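 note: growth inhibition of human HAL-01 cells, read out with a cell viability assay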
Description: SANGER: Inhibition of human HAL-01 cell growth in a cell viability assay.

OCI-AML2 = assay type: functional, cell-based; settings: Homo sapiens;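 note: growth inhibition of OCI-AML2 cells, read out with a cell viability assay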
Description: SANGER: Inhibition of human OCI-AML2 cell growth in a cell viability assay.

LAMA-84 = assay type: functional, cell-based; settings: Homo sapiens;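 note: growth inhibition of LAMA-84 cells, read out with a cell viability assay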
Description: SANGER: Inhibition of human LAMA-84 cell growth in a cell viability assay.

SK-OV-3 = assay type: functional, cell-based, Homo sapiens; settings: Homo sapiens, SK-OV-3;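 note: growth inhibition of SK-OV-3 human cells, read out with a cell viability assay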
Description: SANGER: Inhibition of human SK-OV-3 cell growth in a cell viability assay.

BEN = assay type: functional, cell-based, Homo sapiens; settings: Homo sapiens, BEN;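 note: growth inhibition of the BEN cell line, read out with a cell viability assay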
Description: SANGER: Inhibition of human BEN cell growth in a cell viability assay.

NCI-H1581 = assay type: functional, cell-based, Homo sapiens; settings: Homo sapiens, NCI-H1581;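 note: cell growth inhibition read out by a viability assay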
Description: SANGER: Inhibition of human NCI-H1581 cell growth in a cell viability assay.

NTERA-2-cl-D1 = assay type: functional, cell-based, Homo sapiens; settings: Homo sapiens, NTERA-2-cl-D1;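 note: inhibition of cell growth, measured with a cell viability assay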
Description: SANGER: Inhibition of human NTERA-S-cl-D1 cell growth in a cell viability assay.

CAL-85-1 = assay type: functional, cell-based; settings: Homo sapiens;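 note: growth inhibition of human CAL-85-1 cells, read out with a cell viability assay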
Description: SANGER: Inhibition of human CAL-85-1 cell growth in a cell viability assay.

LS-411N = assay type: functional, cell-based, Homo sapiens; settings: Homo sapiens, LS-411N
OMC-1 = assay type: functional, cell-based, Homo sapiens; settings: Homo sapiens, OMC-1;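 note: growth inhibition of the OMC-1 cell line, measured by a cell viability assay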
Description: SANGER: Inhibition of human OMC-1 cell growth in a cell viability assay.

RPMI-7951 = assay type: functional, cell-based, Homo sapiens; settings: Homo sapiens, RPMI-7951
Description: SANGER: Inhibition of human RPMI-7951 cell growth in a cell viability assay.

KOSC-2 = assay type: functional, cell-based, Homo sapiens; settings: Homo sapiens, KOSC-2;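 note: growth inhibition of KOSC-2 cells, read out by a cell viability assay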
Description: SANGER: Inhibition of human KOSC-2 cell growth in a cell viability assay.

A-431 = assay type: functional, cell-based, Homo sapiens; settings: Homo sapiens, A-431;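 note: growth inhibition of A-431 cells, determined with a cell viability read-out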
Description: SANGER: Inhibition of human A431 cell growth in a cell viability assay.

HCC1806 = assay type: functional, cell-based, Homo sapiens; settings: Homo sapiens, HCC1806;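 note: growth inhibition of the cancer cell line, determined with a cell viability assay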
Description: SANGER: Inhibition of human HCC1806 cell growth in a cell viability assay.

GCT = assay type: functional, cell-based, Homo sapiens; settings: Homo sapiens, GCT;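 note: GCT cell line proliferation inhibition, read out with a cell viability assay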
Description: SANGER: Inhibition of human GCT cell growth in a cell viability assay.

KM-H2 = assay type: functional, cell-based; settings: Homo sapiens;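 note: growth inhibition of KM-H2 cells, read out by a cell viability assay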
Description: SANGER: Inhibition of human KM-H2 cell growth in a cell viability assay.

CAL-33 = assay type: functional, cell-based, Homo sapiens; settings: Homo sapiens, CAL-33;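 note: growth inhibition of CAL-33 cells, read out with a cell viability assay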
Description: SANGER: Inhibition of human CAL-33 cell growth in a cell viability assay.

IST-SL1 = assay type: functional, cell-based, Homo sapiens; settings: Homo sapiens, IST-SL1;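 note: growth inhibition of human IST-SL1 cells, read out with a cell viability assay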
Description: SANGER: Inhibition of human IST-SL1 cell growth in a cell viability assay.

DK-MG = assay type: functional, cell-based, Homo sapiens; settings: Homo sapiens, DK-MG;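 note: growth inhibition of DK-MG cells, read out with a cell viability assay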
Description: SANGER: Inhibition of human DK-MG cell growth in a cell viability assay.

MG-63 = assay type: functional, cell-based, Homo sapiens; settings: Homo sapiens, MG-63;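 note: growth inhibition of human MG-63 cells, read out with a cell viability assay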
Description: SANGER: Inhibition of human MG-63 cell growth in a cell viability assay.

HH = assay type: functional, cell-based; settings: Homo sapiens
Description: SANGER: Inhibition of human HH cell growth in a cell viability assay.

SK-NEP-1 = assay type: functional, cell-based; settings: Homo sapiens;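 note: growth inhibition of human SK-NEP-1 cells, read out by a cell viability assay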
Description: SANGER: Inhibition of human SK-NEP-1 cell growth in a cell viability assay.

G-402 = assay type: functional, cell-based, Homo sapiens; settings: Homo sapiens, G-402
Description: SANGER: Inhibition of human G-402 cell growth in a cell viability assay.

H4 = assay type: functional, cell-based; settings: Homo sapiens
Description: SANGER: Inhibition of human H4 cell growth in a cell viability assay.

U-87 MG = assay type: functional, cell-based, U-87MG ATCC; settings: Homo sapiens;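 note: growth inhibition of the cells measured with a viability assay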
Description: SANGER: Inhibition of human U-87-MG cell growth in a cell viability assay.

A204 = assay type: functional, cell-based, Homo sapiens; settings: Homo sapiens, A204;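 note: growth inhibition of human A204 cells, read out with a cell viability assay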
Description: SANGER: Inhibition of human A204 cell growth in a cell viability assay.

HCC1395 = assay type: functional, cell-based, Homo sapiens; settings: Homo sapiens, HCC1395;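 note: growth inhibition of HCC1395 cells, read out by a cell viability assay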
Description: SANGER: Inhibition of human HCC1395 cell growth in a cell viability assay.

HuCCT-1 = assay type: functional, cell-based, Homo sapiens, HuCCT1; settings: Homo sapiens, HuCCT-1;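 note: growth inhibition of HuCCT-1 cells, read out by a cell viability assay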
Description: SANGER: Inhibition of human HuCCT1 cell growth in a cell viability assay.

TE-10 = assay type: functional, cell-based, Homo sapiens; settings: Homo sapiens, TE-10;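 note: growth inhibition of TE-10 cells, measured by a cell viability assay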
Description: SANGER: Inhibition of human TE-10 cell growth in a cell viability assay.

SW1783 = assay type: functional, cell-based; settings: Homo sapiens;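 note: cell growth inhibition measured with a viability assay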
Description: SANGER: Inhibition of human SW1783 cell growth in a cell viability assay.

RT-112 = assay type: functional, cell-based, Homo sapiens; settings: Homo sapiens, RT-112
Description: SANGER: Inhibition of human RT-112 cell growth in a cell viability assay.

SMILES: CCOc1nc(NC(=O)Cc2cc(OC)ccc2OC)cc(N)c1C#N
- IC50 697: > 10 µM
- IC50 (HuP-T4): > 10000 nM
- IC50 (MFM-223): > 10 µM
- IC50 (JAR): > 10 µM
- IC50 (NCI-H727): > 10 µM
- IC50 (UO-31): > 10 µM
- IC50 (KS-1): > 10000 nM
- IC50 (KM12): > 10 µM
- IC50 (BE-13): > 10 µM
- IC50 (CAMA-1): > 10 µM
- IC50 (KARPAS-299): > 10 µM
- IC50 (KU812 cell line): > 10000 nM
- IC50 (OVCAR-4): > 10 µM
- IC50 (UACC-257): > 10000 nM
- IC50 (DOK): > 10000 nM
- IC50 (MC116): > 10 µM
- IC50 (A-375): > 10000 nM
- IC50 (IA-LM): > 10 µM
- IC50 (MEL-HO): > 10000 nM
- IC50 (BFTC-905): > 10000 nM
- IC50 (CTV-1): > 10 µM
- IC50 (NB7): 2.27 µM
- IC50 (HAL-01): > 10 µM
- IC50 (OCI-AML2): > 10 µM
- IC50 (LAMA-84): > 10000 nM
- IC50 (SK-OV-3): > 10 µM
- IC50 (BEN): > 10 µM
- IC50 (NCI-H1581): > 10 µM
- IC50 (NTERA-2-cl-D1): > 10 µM
- IC50 (CAL-85-1): > 10 µM
- IC50 (LS-411N): > 10000 nM
- IC50 (OMC-1): > 10 µM
- IC50 (RPMI-7951): > 10000 nM
- IC50 (KOSC-2): > 10000 nM
- IC50 (A-431): > 10000 nM
- IC50 (HCC1806): > 10 µM
- IC50 (GCT): > 10 µM
- IC50 (KM-H2): > 10 µM
- IC50 (CAL-33): > 10000 nM
- IC50 (IST-SL1): > 10 µM
- IC50 (DK-MG): > 10000 nM
- IC50 (MG-63): > 10000 nM
- IC50 (HH): > 10 µM
- IC50 (SK-NEP-1): > 10 µM
- IC50 (G-402): > 10 µM
- IC50 (H4): > 10 µM
- IC50 (U-87 MG): > 10 µM
- IC50 (A204): > 10 µM
- IC50 (HCC1395): > 10 µM
- IC50 (HuCCT-1): > 10000 nM
- IC50 (TE-10): > 10 µM
- IC50 (SW1783): > 10 µM
- IC50 (RT-112): > 10000 nM

SMILES: COc1cc(F)c(F)c(Nc2ccc(I)cc2F)c1NS(=O)(=O)C1(CC(O)CO)CC1 (stereo unspecified)
- IC50 697: > 5 µM
- IC50 (HuP-T4): 514 nM
- IC50 (MFM-223): > 5 µM
- IC50 (JAR): > 5 µM
- IC50 (NCI-H727): > 5 µM
- IC50 (UO-31): > 5 µM
- IC50 (KS-1): 1260 nM
- IC50 (KM12): > 5 µM
- IC50 (BE-13): > 5 µM
- IC50 (CAMA-1): > 5 µM
- IC50 (KARPAS-299): > 5 µM
- IC50 (KU812 cell line): 239 nM
- IC50 (OVCAR-4): > 5 µM
- IC50 (UACC-257): 66.7 nM
- IC50 (DOK): 432 nM
- IC50 (MC116): > 5 µM
- IC50 (A-375): 120 nM
- IC50 (IA-LM): 4.19 µM
- IC50 (MEL-HO): 39.4 nM
- IC50 (BFTC-905): 719 nM
- IC50 (CTV-1): 4.96 µM
- IC50 (NB7): 4.71 µM
- IC50 (HAL-01): > 5 µM
- IC50 (OCI-AML2): > 5 µM
- IC50 (LAMA-84): 318 nM
- IC50 (SK-OV-3): > 5 µM
- IC50 (BEN): > 5 µM
- IC50 (NCI-H1581): > 5 µM
- IC50 (NTERA-2-cl-D1): > 5 µM
- IC50 (CAL-85-1): 3.57 µM
- IC50 (LS-411N): 403 nM
- IC50 (OMC-1): > 5 µM
- IC50 (RPMI-7951): 761 nM
- IC50 (KOSC-2): 1680 nM
- IC50 (A-431): 2920 nM
- IC50 (HCC1806): > 5 µM
- IC50 (GCT): > 5 µM
- IC50 (KM-H2): > 5 µM
- IC50 (CAL-33): 1560 nM
- IC50 (IST-SL1): > 5 µM
- IC50 (DK-MG): 2830 nM
- IC50 (MG-63): 2820 nM
- IC50 (HH): > 5 µM
- IC50 (SK-NEP-1): > 5 µM
- IC50 (G-402): > 5 µM
- IC50 (H4): 3.35 µM
- IC50 (U-87 MG): > 5 µM
- IC50 (A204): > 5 µM
- IC50 (HCC1395): > 5 µM
- IC50 (HuCCT-1): 905 nM
- IC50 (TE-10): > 5 µM
- IC50 (SW1783): > 5 µM
- IC50 (RT-112): 1590 nM
